Consider 1 molecule from PMC3511435, “A Transposon-Derived DNA Polymerase from Entamoeba histolytica Displays Intrinsic Strand Displacement, Processivity and Lesion Bypass” (PLoS ONE, 2012).

For the experiment, the system named is T1, EhDNApolB2.
T1 construct: N-terminal 153 residues deleted, 660-aa C-terminal exonuclease and polymerase region, pCOLD I vector (IMAC-purified), E. coli BL21 DE3 Rosetta II, 78 kDa
Kind of experiment: primer extension on M13mp18 ssDNA, denaturing gel, phosphorimaging. Format: biochemical, Entamoeba histolytica. The note with it: 25 µM dNTPs; 1 nM 32P-labelled 17mer primer / circular M13mp18 ssDNA; 20 nM enzyme; 10 min, 37 °C; read-out: reduced by half at a concentration of.

The structures appear in SMILES notation.

For `C[C@@]1(CO)[C@H](O)CC[C@@]2(C)[C@H]1CC[C@H]1C[C@@H]3C[C@@]12CC[C@]3(O)CO` [aphidicolin], the IC50 came to 242 µM.
